{"source": "paper PMC5862592", "about": "“CDK8/19 inhibition induces premature G1/S transition and ATR-dependent cell death in prostate cancer cells” (Oncotarget, 2018)", "test_in_all_cases": "biochemical", "parameters_in_all_cases": "KINOMEscan active site-directed competition binding assay (DiscoveRx), 456 kinases, per cent of control at 300 nM", "details_in_all_cases": "read-out: Percent of Control (%)", "key": {"BTK": {"biological_target": "BTK (Homo sapiens, UniProt Q06187)", "procedure,_shortened": "(§1)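 Each compound is tested at 300 nmol/L against a panel of 456 kinases. Interaction is quantified by competition for the kinase active site.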"}, "CASK": {"biological_target": "CASK (Homo sapiens, UniProt O14936)", "sequence (O14936 whole entry)": "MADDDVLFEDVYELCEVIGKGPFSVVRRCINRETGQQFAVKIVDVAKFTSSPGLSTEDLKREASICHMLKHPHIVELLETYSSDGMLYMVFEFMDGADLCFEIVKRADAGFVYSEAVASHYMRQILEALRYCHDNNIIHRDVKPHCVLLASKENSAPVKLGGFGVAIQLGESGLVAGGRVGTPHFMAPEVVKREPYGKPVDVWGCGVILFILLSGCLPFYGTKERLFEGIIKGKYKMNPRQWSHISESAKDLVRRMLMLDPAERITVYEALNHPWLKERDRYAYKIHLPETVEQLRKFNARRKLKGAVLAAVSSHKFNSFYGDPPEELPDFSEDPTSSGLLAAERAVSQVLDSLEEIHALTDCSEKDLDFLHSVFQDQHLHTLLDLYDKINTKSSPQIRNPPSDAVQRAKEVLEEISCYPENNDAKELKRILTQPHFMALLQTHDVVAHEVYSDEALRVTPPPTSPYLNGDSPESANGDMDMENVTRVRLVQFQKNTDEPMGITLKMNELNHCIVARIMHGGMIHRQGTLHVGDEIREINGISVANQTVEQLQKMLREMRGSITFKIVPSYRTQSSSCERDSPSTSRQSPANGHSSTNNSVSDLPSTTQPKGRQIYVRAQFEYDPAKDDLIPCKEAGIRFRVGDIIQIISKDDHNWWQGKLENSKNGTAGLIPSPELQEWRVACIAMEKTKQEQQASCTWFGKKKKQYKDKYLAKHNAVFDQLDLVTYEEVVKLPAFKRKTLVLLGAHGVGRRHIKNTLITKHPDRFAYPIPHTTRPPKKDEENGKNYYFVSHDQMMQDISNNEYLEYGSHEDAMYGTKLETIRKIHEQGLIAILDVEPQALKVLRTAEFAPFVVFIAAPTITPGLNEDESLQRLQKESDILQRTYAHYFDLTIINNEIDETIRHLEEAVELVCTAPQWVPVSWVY", "procedure,_shortened": "as §1"}, "DCAMKL3": {"biological_target": "T1, DCAMKL3 (Homo sapiens, UniProt Q9C098)", "T1 construct": "gene DCLK3", "procedure,_shortened": "as §1"}, "ERK8": {"biological_target": "T2, ERK8 (Homo sapiens, UniProt Q8TD08)", "T2 construct": "gene MAPK15", "procedure,_shortened": "as §1"}, "INSRR": {"biological_target": "INSRR (Homo sapiens, UniProt P14616)", "procedure,_shortened": "as §1"}, "IRAK3": {"biological_target": "IRAK3 (Homo sapiens, UniProt Q9Y616)", "procedure,_shortened": "as §1"}, "[1]": {"biological_target": "T3, JAK3(JH1domain-catalytic) (Homo sapiens, UniProt P52333)", "T3 construct": "JH1domain-catalytic", "procedure,_shortened": "as §1"}, "KIT(A829P)": {"biological_target": "KIT(A829P) (Homo sapiens, UniProt P10721, A829P)", "procedure,_shortened": "as §1"}, "MEK6": {"biological_target": "T4, MEK6 (Homo sapiens, UniProt P52564)", "T4 construct": "gene MAP2K6", "T4 sequence (P52564 whole entry)": "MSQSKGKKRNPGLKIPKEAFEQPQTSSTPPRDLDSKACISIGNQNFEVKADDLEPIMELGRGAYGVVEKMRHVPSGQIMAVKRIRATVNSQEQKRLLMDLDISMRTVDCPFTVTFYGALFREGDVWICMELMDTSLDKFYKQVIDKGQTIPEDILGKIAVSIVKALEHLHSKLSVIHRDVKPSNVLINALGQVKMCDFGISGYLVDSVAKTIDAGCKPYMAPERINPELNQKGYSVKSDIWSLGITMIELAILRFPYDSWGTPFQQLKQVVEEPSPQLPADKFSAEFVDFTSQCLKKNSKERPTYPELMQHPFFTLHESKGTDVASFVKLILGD", "procedure,_shortened": "as §1"}, "MLK2": {"biological_target": "T5, MLK2 (Homo sapiens, UniProt Q02779)", "T5 construct": "gene MAP3K10", "procedure,_shortened": "as §1"}, "MUSK": {"biological_target": "MUSK (Homo sapiens, UniProt O15146)", "procedure,_shortened": "as §1"}, "NEK6": {"biological_target": "NEK6 (Homo sapiens, UniProt Q9HC98)", "procedure,_shortened": "as §1"}, "PIM1": {"biological_target": "PIM1 (Homo sapiens, UniProt P11309)", "sequence (P11309 whole entry)": "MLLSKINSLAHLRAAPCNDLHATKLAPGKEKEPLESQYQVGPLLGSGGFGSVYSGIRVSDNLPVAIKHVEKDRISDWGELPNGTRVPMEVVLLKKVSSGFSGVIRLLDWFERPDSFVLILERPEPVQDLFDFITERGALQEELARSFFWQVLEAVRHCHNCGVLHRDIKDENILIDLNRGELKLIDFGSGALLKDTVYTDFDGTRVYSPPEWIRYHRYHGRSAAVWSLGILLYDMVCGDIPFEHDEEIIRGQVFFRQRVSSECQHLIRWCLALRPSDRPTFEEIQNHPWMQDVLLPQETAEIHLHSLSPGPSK", "procedure,_shortened": "as §1"}, "RAF1": {"biological_target": "RAF1 (Homo sapiens, UniProt P04049)", "sequence (P04049 whole entry)": "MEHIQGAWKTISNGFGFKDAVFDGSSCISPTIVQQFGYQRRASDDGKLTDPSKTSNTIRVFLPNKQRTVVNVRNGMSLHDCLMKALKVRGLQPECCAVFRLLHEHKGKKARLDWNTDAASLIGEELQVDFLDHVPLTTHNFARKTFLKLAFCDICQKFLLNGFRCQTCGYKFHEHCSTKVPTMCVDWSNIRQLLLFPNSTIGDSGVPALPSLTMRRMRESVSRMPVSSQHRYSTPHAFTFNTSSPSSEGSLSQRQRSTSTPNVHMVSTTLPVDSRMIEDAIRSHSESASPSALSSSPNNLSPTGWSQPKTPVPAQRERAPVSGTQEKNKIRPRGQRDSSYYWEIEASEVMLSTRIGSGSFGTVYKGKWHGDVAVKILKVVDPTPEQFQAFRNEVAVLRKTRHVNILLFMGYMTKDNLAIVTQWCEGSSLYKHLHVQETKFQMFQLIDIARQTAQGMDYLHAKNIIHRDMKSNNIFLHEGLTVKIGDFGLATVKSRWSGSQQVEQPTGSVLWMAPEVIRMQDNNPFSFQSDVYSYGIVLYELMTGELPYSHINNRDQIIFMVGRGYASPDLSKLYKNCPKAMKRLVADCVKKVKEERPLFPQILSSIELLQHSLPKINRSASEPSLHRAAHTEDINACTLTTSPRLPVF", "procedure,_shortened": "as §1"}, "[2]": {"biological_target": "T6, RPS6KA5(Kin.Dom.2-C-terminal) (Homo sapiens, UniProt O75582)", "T6 construct": "Kin.Dom.2-C-terminal", "procedure,_shortened": "as §1"}, "[3]": {"biological_target": "T7, RSK2(Kin.Dom.2-C-terminal) (Homo sapiens, UniProt P51812)", "T7 construct": "gene RPS6KA3; Kin.Dom.2-C-terminal", "procedure,_shortened": "as §1"}, "TEC": {"biological_target": "TEC (Homo sapiens, UniProt P42680)", "procedure,_shortened": "as §1"}, "WEE1": {"biological_target": "WEE1 (Homo sapiens, UniProt P30291)", "procedure,_shortened": "as §1"}, "WNK3": {"biological_target": "WNK3 (Homo sapiens, UniProt Q9BYP7)", "sequence (Q9BYP7 whole entry)": "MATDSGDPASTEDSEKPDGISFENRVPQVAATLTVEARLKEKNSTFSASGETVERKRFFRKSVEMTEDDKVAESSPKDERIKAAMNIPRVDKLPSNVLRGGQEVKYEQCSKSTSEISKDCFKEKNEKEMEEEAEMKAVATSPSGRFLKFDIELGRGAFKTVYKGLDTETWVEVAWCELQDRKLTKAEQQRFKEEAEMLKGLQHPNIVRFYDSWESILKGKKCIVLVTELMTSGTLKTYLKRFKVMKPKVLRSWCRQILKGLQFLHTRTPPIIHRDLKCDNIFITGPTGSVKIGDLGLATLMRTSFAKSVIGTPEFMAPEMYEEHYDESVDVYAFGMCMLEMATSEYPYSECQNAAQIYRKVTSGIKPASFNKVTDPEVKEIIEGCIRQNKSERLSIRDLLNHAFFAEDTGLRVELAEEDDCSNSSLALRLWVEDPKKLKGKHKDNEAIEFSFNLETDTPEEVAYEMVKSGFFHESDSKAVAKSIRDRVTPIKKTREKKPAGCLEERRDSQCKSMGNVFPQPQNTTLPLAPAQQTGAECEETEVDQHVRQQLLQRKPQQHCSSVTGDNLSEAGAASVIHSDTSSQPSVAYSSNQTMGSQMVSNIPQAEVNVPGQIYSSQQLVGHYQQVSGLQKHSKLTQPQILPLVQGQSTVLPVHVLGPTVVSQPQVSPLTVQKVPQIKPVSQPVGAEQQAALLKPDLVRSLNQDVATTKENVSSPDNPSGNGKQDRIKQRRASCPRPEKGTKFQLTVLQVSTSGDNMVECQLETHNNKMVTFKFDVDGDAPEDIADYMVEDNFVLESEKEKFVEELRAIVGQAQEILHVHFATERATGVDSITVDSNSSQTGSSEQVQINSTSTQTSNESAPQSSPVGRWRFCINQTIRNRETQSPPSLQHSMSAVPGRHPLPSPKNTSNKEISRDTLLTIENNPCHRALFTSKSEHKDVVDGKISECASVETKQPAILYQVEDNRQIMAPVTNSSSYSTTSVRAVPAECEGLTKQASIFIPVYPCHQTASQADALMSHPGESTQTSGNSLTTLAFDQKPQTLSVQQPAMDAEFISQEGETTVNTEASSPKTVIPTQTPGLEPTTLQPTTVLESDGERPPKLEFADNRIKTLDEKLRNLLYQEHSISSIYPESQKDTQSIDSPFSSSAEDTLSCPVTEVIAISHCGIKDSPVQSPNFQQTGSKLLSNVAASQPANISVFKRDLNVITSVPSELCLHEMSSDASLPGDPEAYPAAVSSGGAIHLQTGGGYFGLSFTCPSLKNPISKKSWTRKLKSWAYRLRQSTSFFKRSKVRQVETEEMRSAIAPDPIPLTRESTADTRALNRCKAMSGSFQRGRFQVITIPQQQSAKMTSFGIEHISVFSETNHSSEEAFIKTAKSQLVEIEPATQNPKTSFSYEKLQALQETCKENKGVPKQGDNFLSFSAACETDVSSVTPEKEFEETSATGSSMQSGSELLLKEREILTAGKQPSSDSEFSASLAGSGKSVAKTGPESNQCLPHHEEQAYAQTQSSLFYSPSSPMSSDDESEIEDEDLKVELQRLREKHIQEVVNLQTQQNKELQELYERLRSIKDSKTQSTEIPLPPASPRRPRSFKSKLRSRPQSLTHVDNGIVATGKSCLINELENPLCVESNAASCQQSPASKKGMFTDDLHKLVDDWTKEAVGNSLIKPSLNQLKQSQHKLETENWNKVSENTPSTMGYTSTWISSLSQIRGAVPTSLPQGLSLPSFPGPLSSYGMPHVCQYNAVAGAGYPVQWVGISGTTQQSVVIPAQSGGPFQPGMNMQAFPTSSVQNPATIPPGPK", "procedure,_shortened": "as §1"}, "YSK4": {"biological_target": "T8, YSK4 (Homo sapiens, UniProt Q56UN5)", "T8 construct": "gene MAP3K19", "procedure,_shortened": "as §1"}, "ZAK": {"biological_target": "T9, ZAK (Homo sapiens, UniProt Q9NYL2)", "T9 construct": "gene MAP3K20", "T9 sequence (Q9NYL2 whole entry)": "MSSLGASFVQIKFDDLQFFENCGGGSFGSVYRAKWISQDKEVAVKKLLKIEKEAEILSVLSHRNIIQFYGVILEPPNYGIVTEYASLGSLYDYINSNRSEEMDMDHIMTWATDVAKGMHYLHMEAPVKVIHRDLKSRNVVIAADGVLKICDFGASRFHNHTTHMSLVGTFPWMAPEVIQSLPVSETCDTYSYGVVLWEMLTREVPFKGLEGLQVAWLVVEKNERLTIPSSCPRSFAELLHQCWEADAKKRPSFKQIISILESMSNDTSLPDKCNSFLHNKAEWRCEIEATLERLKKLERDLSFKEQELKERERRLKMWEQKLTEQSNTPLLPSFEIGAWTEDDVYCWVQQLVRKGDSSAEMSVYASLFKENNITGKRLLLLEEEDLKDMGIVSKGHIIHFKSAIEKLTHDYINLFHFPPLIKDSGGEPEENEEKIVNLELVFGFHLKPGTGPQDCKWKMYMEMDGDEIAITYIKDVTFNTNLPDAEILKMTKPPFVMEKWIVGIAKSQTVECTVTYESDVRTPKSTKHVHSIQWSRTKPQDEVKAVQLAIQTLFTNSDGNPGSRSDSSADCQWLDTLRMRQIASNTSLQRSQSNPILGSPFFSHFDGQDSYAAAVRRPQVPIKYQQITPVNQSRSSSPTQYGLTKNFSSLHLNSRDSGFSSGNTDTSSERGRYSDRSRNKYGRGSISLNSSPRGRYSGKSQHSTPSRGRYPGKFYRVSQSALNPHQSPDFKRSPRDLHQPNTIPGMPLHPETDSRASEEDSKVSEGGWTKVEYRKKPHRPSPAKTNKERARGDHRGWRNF", "procedure,_shortened": "as §1"}}, "note": "Like-named read-outs stand apart in the source and are kept apart here."}
{"molecule": "O=C(/C=C/c1cnccc1-c1ccc(F)cc1)Nc1ccc(CCc2nnco2)cc1", "note": "[T-418, (2E)-3-(4-(4-fluorophenyl)pyridin-3-yl)-N-(4-(2-(1,3,4-oxadiazol-2-yl)ethyl)phenyl)acrylamide]", "values": [{"measurement": "remaining binding at 0.3 µM", "setting": "BTK; sheet T-418", "value": 79, "unit": "%"}, {"measurement": "remaining binding at 0.3 µM", "setting": "CASK; sheet T-418", "value": 89, "unit": "%"}, {"measurement": "remaining binding at 0.3 µM", "setting": "DCAMKL3; sheet T-418", "value": 83, "unit": "%"}, {"measurement": "remaining binding at 0.3 µM", "setting": "ERK8; sheet T-418", "value": 94, "unit": "%"}, {"measurement": "remaining binding at 0.3 µM", "setting": "INSRR; sheet T-418", "value": 100, "unit": "%"}, {"measurement": "remaining binding at 0.3 µM", "setting": "IRAK3; sheet T-418", "value": 100, "unit": "%"}, {"measurement": "remaining binding at 0.3 µM", "setting": "[1]; sheet T-418", "value": 68, "unit": "%"}, {"measurement": "remaining binding at 0.3 µM", "setting": "KIT(A829P); sheet T-418", "value": 100, "unit": "%"}, {"measurement": "remaining binding at 0.3 µM", "setting": "MEK6; sheet T-418", "value": 99, "unit": "%"}, {"measurement": "remaining binding at 0.3 µM", "setting": "MLK2; sheet T-418", "value": 71, "unit": "%"}, {"measurement": "remaining binding at 0.3 µM", "setting": "MUSK; sheet T-418", "value": 100, "unit": "%"}, {"measurement": "remaining binding at 0.3 µM", "setting": "NEK6; sheet T-418", "value": 98, "unit": "%"}, {"measurement": "remaining binding at 0.3 µM", "setting": "PIM1; sheet T-418", "value": 75, "unit": "%"}, {"measurement": "remaining binding at 0.3 µM", "setting": "RAF1; sheet T-418", "value": 80, "unit": "%"}, {"measurement": "remaining binding at 0.3 µM", "setting": "[2]; sheet T-418", "value": 100, "unit": "%"}, {"measurement": "remaining binding at 0.3 µM", "setting": "[3]; sheet T-418", "value": 100, "unit": "%"}, {"measurement": "remaining binding at 0.3 µM", "setting": "TEC; sheet T-418", "value": 98, "unit": "%"}, {"measurement": "remaining binding at 0.3 µM", "setting": "WEE1; sheet T-418", "value": 90, "unit": "%"}, {"measurement": "remaining binding at 0.3 µM", "setting": "WNK3; sheet T-418", "value": 100, "unit": "%"}, {"measurement": "remaining binding at 0.3 µM", "setting": "YSK4; sheet T-418", "value": 100, "unit": "%"}, {"measurement": "remaining binding at 0.3 µM", "setting": "ZAK; sheet T-418", "value": 73, "unit": "%"}]}
{"molecule": "Cc1ncccc1Oc1sc(C(N)=O)c2c1-c1c(cnn1C)CC2", "note": "[T-474, 1-methyl-8-((2-methylpyridin-3-yl)oxy)-4,5-dihydro-1H-thieno[3,4-g]indazole-6-carboxamide]", "values": [{"measurement": "remaining binding at 0.3 µM", "setting": "BTK", "value": 81, "unit": "%"}, {"measurement": "remaining binding at 0.3 µM", "setting": "CASK", "value": 85, "unit": "%"}, {"measurement": "remaining binding at 0.3 µM", "setting": "DCAMKL3", "value": 76, "unit": "%"}, {"measurement": "remaining binding at 0.3 µM", "setting": "ERK8", "value": 88, "unit": "%"}, {"measurement": "remaining binding at 0.3 µM", "setting": "INSRR", "value": 100, "unit": "%"}, {"measurement": "remaining binding at 0.3 µM", "setting": "IRAK3", "value": 96, "unit": "%"}, {"measurement": "remaining binding at 0.3 µM", "setting": "[1]", "value": 72, "unit": "%"}, {"measurement": "remaining binding at 0.3 µM", "setting": "KIT(A829P)", "value": 99, "unit": "%"}, {"measurement": "remaining binding at 0.3 µM", "setting": "MEK6", "value": 92, "unit": "%"}, {"measurement": "remaining binding at 0.3 µM", "setting": "MLK2", "value": 97, "unit": "%"}, {"measurement": "remaining binding at 0.3 µM", "setting": "MUSK", "value": 100, "unit": "%"}, {"measurement": "remaining binding at 0.3 µM", "setting": "NEK6", "value": 100, "unit": "%"}, {"measurement": "remaining binding at 0.3 µM", "setting": "PIM1", "value": 92, "unit": "%"}, {"measurement": "remaining binding at 0.3 µM", "setting": "RAF1", "value": 98, "unit": "%"}, {"measurement": "remaining binding at 0.3 µM", "setting": "[2]", "value": 100, "unit": "%"}, {"measurement": "remaining binding at 0.3 µM", "setting": "[3]", "value": 100, "unit": "%"}, {"measurement": "remaining binding at 0.3 µM", "setting": "TEC", "value": 100, "unit": "%"}, {"measurement": "remaining binding at 0.3 µM", "setting": "WEE1", "value": 90, "unit": "%"}, {"measurement": "remaining binding at 0.3 µM", "setting": "WNK3", "value": 100, "unit": "%"}, {"measurement": "remaining binding at 0.3 µM", "setting": "YSK4", "value": 100, "unit": "%"}, {"measurement": "remaining binding at 0.3 µM", "setting": "ZAK", "value": 74, "unit": "%"}]}
